# Data: article PMC8546421, “Molecular modelling of the FOXO4-TP53 interaction to design senolytic peptides for the elimination of senescent cancer cells” (EBioMedicine, 2021)
# Where no end group is shown, it is not given here.
# Legend:
# FOXO4-TP53 interaction = assay: Co-immunoprecipitation of Myc-FOXO4 for p53; format: cell-based, human; conditions: senescent HCT116-Myc-FOXO4 cells, 8 µM ES2, 1 hour
# Protocol: HCT116 cells were transduced with FOXO4 (NM_005938) human tagged ORF Lentiviral Particles (Origene, Cat# RC213185L1V) at 10^6 TU/mL. Cells were then cultured for seven passages. HCT116-Myc-FOXO4 were made senescent using 200 nM Doxorubicin at the final cell concentration of 24 million cells. Dividing cells were plated at concentration of 80 million cells. The following day, cells were treated with 8 µM ES2 for 0 or 1 hour. Nuclear protein was then isolated using NE-PER™ Nuclear and Cytoplasmic Extraction Reagents kit (Cat# 78833) then quantified via Pierce^TM BCA Protein Assay Kit (Cat# 23225) according to manufacturer's instructions. 400 µg of each nuclear lysate and 10 µL of provided positive control was used in the Thermo Scientific™ Pierce™ c-Myc-Tag IP/Co-IP Kit (Cat# 23620). The eluted protein (20 µL) was then loaded onto Bolt™ 4 to 12%, Bis-Tris, 1.0 mm, Mini Protein Gel, 10-well (Cat# NW04120BOX) and run at 120V for 60 minutes in 1X Invitrogen™ Bolt™ MOPS SDS Running Buffer using the Mini Gel Tank (Cat. A25977). Protein was then transferred onto 0.4 µm PVDF according to manufacturer protocol. The membrane was then blocked in 5% non-fat milk in 1x TBS-T (Cat# 03-500-537) for 60 minutes. […]
# [1] = test system: Braf/Pten sporadic melanomas; assay: TUNEL staining of melanomas in transgenic mice; format: in vivo, mouse; conditions: intratumoural injection daily over two days; single agents vs saline
# Protocol: These mice were maintained on a C57Bl6 background and all experimental mice contained Tyr::CreER with either Braf^CA/+, Pten^fx/+; Braf^CA/CA, Pten^fx/+, or Braf^CA/+, Pten^fx/fx. […] Hypopigmented melanomas sporadically formed over the next 3-5 months, typically on the back of the mouse. These melanomas were then directly injected with 100 µL of either 20 mg/mL ES2+10%DMSO, saline+10%DMSO, saline+10%Dabrafenib, or 20 mg/mL ES2+10%Dabrafenib. The researchers were not blinded to the experiment, but each mouse contained an internal control and all imaging was done with the same exposure times based upon control tissue.
# Fixed frozen sections of melanomas were stained with the Click-IT Plus TUNEL assay (ThermoFisher C10618) according to the manufacturer's protocol. Stained sections were imaged with a Zeiss A2 upright microscope at either 20x or 10x. At least one of each treatment group were stained and imaged at the same time. All sections from each staining group were set to the same exposure time for TUNEL and DAPI. Any normalization of background levels was performed in Adobe Photoshop and set to the same scale for the entire image and for all other images.
# [2] = test system: senescent TP53 knockout MCF10a cells; assay: ES2 viability in TP53 knockout vs wildtype MCF10a cells; format: cell-based, human; conditions: range of ES2 treatments
# Protocol: A375-Luc/iRFP cells were purchased from Creative Biogene (CSC-RR0254). B16-F10 cells were purchased (ATCC Cat# CRL-6475, RRID:CVCL_0159). MCF7 cells were purchased (ATCC Cat# HTB-22, RRID:CVCL_0031). IMR90 cells were purchased (ATCC Cat# CCL-186, RRID:CVCL_0347). A375-Luc/iRFP, B16-F10, IMR90, and MCF7 cells were cultured in Dulbecco's Modified Eagle Medium (DMEM), 10% fetal bovine serum (FBS) and 1X penicillin-streptomycin (PS). HCT-116 cells were purchased (ATCC Cat# CCL-247, RRID:CVCL_0291). DLD-1 cells were purchased (ATCC Cat# CCL-221, RRID:CVCL_0248). SW480 cells were purchased (ATCC Cat# CCL-228, RRID:CVCL_0546). HCT-116, DLD-1, and SW480 cells were cultured in Roswell Park Memorial Institute 1640 (RPMI 1640), 10% FBS, and 1X PS. […]
# Cell lines were treated with chemotherapy, doxorubicin (Sigma, Cat. No. 2252) to induce senescence (200 nM for HCT116, 100 nM for B16-F10 and MCF7, 50 nM for SW480 and DLD-1, 40 nM for A375-Luc/iRFP and MCF10a). […] Cellular proliferation was quantified using the Promega CellTiter 96™ AQueous One Solution Cell Proliferation Assay (MTS) after 2 hours according to the manufacturer's protocol (Promega, G3581). […]
# dividing A375 cells = assay: Peptide efficacy in culture (MTS), dividing cells; format: cell-based, human; conditions: peptide replenished daily for two days, MTS, best fit polynomial, read-out: IC50^div, concentration to kill 50% of dividing cells
# Protocol: Cell lines were treated with chemotherapy, doxorubicin (Sigma, Cat. No. 2252) to induce senescence (200 nM for HCT116, 100 nM for B16-F10 and MCF7, 50 nM for SW480 and DLD-1, 40 nM for A375-Luc/iRFP and MCF10a). MCF7 cells were treated with CDK4/6 inhibitor, palbociclib (Selleck Chemicals: S1116) to induce senescence (5 µM). A375 cells were treated with Braf inhibitor, Dabrafenib (Selleck Chemicals: S2807), to induce senescence (10 µM). Peptide efficacy experiments were performed by seeding 10,000 – 20,000 cells in a 96-well plate. The cells were given doxorubicin twice to make the cells senescent. After removal of doxorubicin, the plate was treated with varying concentrations of peptide. The peptide was replenished daily for two days. Cellular proliferation was quantified using the Promega CellTiter 96™ AQueous One Solution Cell Proliferation Assay (MTS) after 2 hours according to the manufacturer's protocol (Promega, G3581). To control for the charge of ES2, ProteoJuice (Millipore Sigma, 71281) was used to deliver ES2 using the manufacturers protocol, except 50 µL of 2 mM ES2 was mixed with 25 µL of ProteoJuice. Varying concentrations of the mixture were administered to A375 cells along with a control of only ProteoJuice.
sequence,measurement,setting,value
PRKGGRRRRAWGRRRRRRRRRRRRRRAPRKRLTLA [ES2],TP53 band co-immunoprecipitated with Myc-FOXO4,FOXO4-TP53 interaction,a band at 53kDa that is eliminated after treating with ES2
same,"effect on apoptosis (TUNEL), in words",[1],no difference
same,ES2 mediated cell death in p53−/− vs p53+/+ senescent MCF10a,[2],resistant to ES2 mediated cell death
same,IC50,dividing A375 cells,~17 µM
